Measured values from patent publication US8044211B2 (Chroma Therapeutics Ltd., priority 2006, dated 2011).
Where two headings read alike, the source gives them in different places.

Columns and labels:
THP-1 TNFα release = assay: LPS-stimulation of THP-1 cells, TNF-α by ELISA; type: cell-based; conditions: IC50 range, LPS 1 μg/ml, 6 hrs, read-out: Inhibitor activity versus THP-1 TNFα release
Method: THP-1 cells were plated in 100 μl at a density of 4×10^4 cells/well in V-bottomed 96 well tissue culture treated plates and incubated at 37° C. in 5% CO2 for 16 hrs. 2 hrs after the addition of the inhibitor in […], of tissue culture media, the cells were stimulated with LPS (E. coli strain 005:B5, Sigma) at a final concentration of 1 μg/ml and incubated at 37° C. in 5% CO2 for 6 hrs. TNF-α levels were measured from cell-free supernatants by sandwich ELISA (R&D Systems #QTA00B).

p38 MAP Kinase a = target: T1, p38 MAP Kinase a (Homo sapiens, UniProt Q16539); assay: p38 MAP Kinase activity, radiometric filter-binding assay (Upstate); type: biochemical; conditions: IC50 range; ATP at or close to Km; read-out: Inhibitor activity versus p38 MAPKa
T1 construct: purchased Upstate (Dundee UK)
Method: The ability of compounds to inhibit p38 MAP a Kinase activity was measured in an assay performed by Upstate (Dundee UK). In a final reaction volume of 25 μL, p38 MAP Kinase a (5-10 mU) is incubated with 25 mM Tris pH 7.5, 0.002 mMEGTA, 0.33 mg/mL myelin basic protein, 10 mM MgAcetate and [g-33P-ATP] (specific activity approx. 500 cpm/pmol, concentration as required). The reaction is initiated by the addition of the MgATP mix. After incubation for 40 minutes at room temperature, the reaction is stopped by the addition of 5 μL of a 3% phosphoric acid solution. 10 μL of the reaction is then spotted onto a P30 filtermat and washed three times for 5 minutes in 75 mM phosphoric acid and once in methanol prior to drying and scintillation counting.
Duplicate data points are generated from a ⅓ log dilution series of a stock solution in DMSO. Nine dilutions steps are made from a top concentration of 10 μM, and a ‘no compound’ blank is included. The standard radiometric filter-binding assay is performed at an ATP concentration at, or close to, the Km. Data from scintillation counts are collected and subjected to free-fit analysis by Prism software. From the curve generated, the concentration giving 50% inhibition is determined and reported.

T1 sequence (Q16539 whole entry): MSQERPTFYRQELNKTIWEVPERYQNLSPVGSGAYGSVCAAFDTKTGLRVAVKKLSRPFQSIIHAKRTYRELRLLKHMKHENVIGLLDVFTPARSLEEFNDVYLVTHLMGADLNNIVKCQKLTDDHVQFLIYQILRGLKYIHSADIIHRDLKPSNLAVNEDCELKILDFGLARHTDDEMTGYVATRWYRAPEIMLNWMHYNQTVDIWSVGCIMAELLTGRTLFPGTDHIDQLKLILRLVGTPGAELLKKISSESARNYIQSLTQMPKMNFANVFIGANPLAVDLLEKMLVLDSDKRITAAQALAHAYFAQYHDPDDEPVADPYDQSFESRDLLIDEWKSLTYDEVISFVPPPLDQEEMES

SMILES	IC50 (THP-1 TNFα release; Homo sapiens, THP-1) [nM]	IC50 (p38 MAP Kinase a) [nM]	IC50 (THP-1 TNFα release) [nM]
Nc1c(C(=O)c2ccc(F)cc2)ccc(=O)n1C1CCC(N[C@@H](Cc2ccccc2)C(=O)OC2CCCC2)CC1 (single isomer, unassigned) [Example 34]	> 1000	100 to 1000	–
Nc1c(C(=O)c2ccc(F)cc2)ccc(=O)n1C1CCC(N[C@@H](Cc2ccccc2)C(=O)OC2CCCC2)CC1 (single isomer, unassigned) [Example 35]	–	100 to 1000	> 1000
Nc1c(C(=O)c2ccc(F)cc2)ccc(=O)n1-c1ccc(CN[C@H](C(=O)OC2CCCC2)c2ccccc2)cc1 [Example 1, Cyclopentyl(S)-{4-[6-Amino-5-(4-fluorobenzoyl)-2-oxo-2H-pyridin-1-yl]benzylamino}phenylacetate]	> 1000	100 to 1000	–
Nc1c(C(=O)c2ccc(F)cc2)ccc(=O)n1-c1ccc(CN[C@@H](Cc2ccccc2)C(=O)OC2CCCC2)cc1 [Example 2, Cyclopentyl(S)-2-{4-[6-Amino-5-(4-fluorobenzoyl)-2-oxo-2H-pyridin-1-yl]benzylamino}-3-phenylpropionate]	> 1000	100 to 1000	–
Cc1cc(C(=O)c2ccc(=O)n(-c3ccc(CN[C@H](C(=O)OC4CCCC4)c4ccccc4)cc3)c2N)ccc1F [Example 4, Cyclopentyl(S)-{4-[6-Amino-5-(3-methyl-4-fluorobenzoyl)-2-oxo-2H-pyridin-1-yl]benzylamino}phenylacetate]	> 1000	100 to 1000	–
Cc1cc(C(=O)c2ccc(=O)n(-c3ccc(CN[C@@H](Cc4ccccc4)C(=O)OC4CCCC4)cc3)c2N)ccc1F [Example 5, Cyclopentyl(S)-2-{4-[6-Amino-5-(3-methyl-4-fluorobenzoyl)-2-oxo-2H-pyridin-1-yl]benzylamino}-3-phenylpropionate]	> 1000	100 to 1000	–
Cc1cc(C(=O)c2ccc(=O)n(-c3ccc(CN[C@@H](CC(C)C)C(=O)OC4CCCC4)cc3)c2N)ccc1F [Example 6, Cyclopentyl(S)-2-{4-[6-Amino-5-(3-Methyl-4-fluorobenzoyl)-2-oxo-2H-pyridin-1-yl]benzylamino}-4-methylpentanoate]	> 1000	100 to 1000	–
Nc1c(C(=O)c2ccc(F)cc2F)ccc(=O)n1-c1ccc(CN[C@H](C(=O)OC2CCCC2)c2ccccc2)cc1 [Example 7, Cyclopentyl(S)-{4-[6-Amino-5-(2,4-difluorobenzoyl)-2-oxo-2H-pyridin-1-yl]benzylamino}phenylacetate]	> 1000	< 100	–
Nc1c(C(=O)c2ccc(F)cc2F)ccc(=O)n1-c1ccc(CN[C@@H](Cc2ccccc2)C(=O)OC2CCCC2)cc1 [Example 8, Cyclopentyl(S)-2-{4-[6-Amino-5-(2,4-difluorobenzoyl)-2-oxo-2H-pyridin-1-yl]benzylamino}-3-phenylpropionate]	100 to 1000	< 100	–
Cc1cc(C(=O)c2ccc(=O)n(-c3ccc(OCCCN[C@@H](Cc4ccccc4)C(=O)OC4CCCC4)cc3)c2N)ccc1F [Example 12, Cyclopentyl(S)-2-(3-{4-[6-Amino-5-(3-methyl-4-fluorobenzoyl)-2-oxo-2H-pyridin-1-yl]phenoxy}propylamino)-3-phenyl propionate]	100 to 1000	< 100	–
Nc1c(C(=O)c2ccc(F)cc2)ccc(=O)n1-c1c(F)cc(OCCCN[C@H](C(=O)OC2CCCC2)c2ccccc2)cc1F [Example 13, Cyclopentyl(S)-(3-{4-[6-Amino-5-(4-fluorobenzoyl)-2-oxo-2H-pyridin-1-yl]-3,5-difluorophenoxy}propylamino)phenylacetate]	< 100	< 100	–
Nc1c(C(=O)c2ccc(F)cc2)ccc(=O)n1-c1c(F)cc(OCCCN[C@@H](Cc2ccccc2)C(=O)OC2CCCC2)cc1F [Example 14]	< 100	< 100	–
CCOC(=O)[C@H](CC(C)C)NCCCOc1cc(F)c(-n2c(N)c(C(=O)c3ccc(F)cc3)ccc2=O)c(F)c1 [Example 16, Ethyl N-(3-{4-[6-amino-5-(4-fluorobenzoyl)-2-oxopyridin-1(2H)-yl]-3,5-difluorophenoxy}propyl)-L-leucinate]	< 100	< 100	–
Cc1cc(C(=O)c2ccc(=O)n(-c3c(F)cc(OCCCN[C@H](C(=O)OC4CCCC4)c4ccccc4)cc3F)c2N)ccc1F [Example 17, Cyclopentyl(S)-(3-{4-[6-Amino-5-(4-fluoro-3-methylbenzoyl)-2-oxo-2H-pyridin-1-yl]-3,5-difluorophenoxy}propylamino) phenylacetate]	< 100	< 100	–
Cc1cc(C(=O)c2ccc(=O)n(-c3c(F)cc(OCCCN[C@@H](Cc4ccccc4)C(=O)OC4CCCC4)cc3F)c2N)ccc1F [Example 18, Cyclopentyl(S)-2-(3-{4-[6-Amino-5-(4-fluoro-3-methylbenzoyl)-2-oxo-2H-pyridin-1-yl]-3,5-difluorophenoxy}propylamino)-3-phenylpropionate]	< 100	< 100	–
Nc1c(C(=O)c2ccc(F)cc2)ccc(=O)n1-c1ccc(OCCCN[C@H](C(=O)OC2CCCC2)c2ccccc2)cc1 [Example 23, Cyclopentyl(S)-(3-{4-[6-Amino-5-(4-fluorobenzoyl)-2-oxo-2H-pyridin-1-yl]-phenoxy}propylamino)phenylacetate]	100 to 1000	< 100	–
Nc1c(C(=O)c2ccc(F)cc2)ccc(=O)n1-c1ccc(OCCCN[C@@H](Cc2ccccc2)C(=O)OC2CCCC2)cc1 [Example 24, Cyclopentyl(S)-2-(3-{4-[6-Amino-5-(4-fluorobenzoyl)-2-oxo-2H-pyridin-1-yl]phenoxy}propylamino)-3-phenylpropionate]	100 to 1000	< 100	–
Cc1cc(C(=O)c2ccc(=O)n(-c3ccc(OCCCN[C@H](C(=O)OC4CCCC4)c4ccccc4)cc3)c2N)ccc1F [Example 26]	100 to 1000	< 100	–
Nc1c(C(=O)c2ccc(F)cc2F)ccc(=O)n1-c1ccc(OCCCN[C@H](C(=O)OC2CCCC2)c2ccccc2)cc1 [Example 28, Cyclopentyl(S)-(3-{4-[6-Amino-5-(2,4-difluorobenzoyl)-2-oxo-2H-pyridin-1-yl]1-phenoxy}propylamino)phenyl acetate]	< 100	< 100	–
Nc1c(C(=O)c2ccc(F)cc2F)ccc(=O)n1-c1c(F)cc(OCCCN[C@@H](C(=O)O)c2ccccc2)cc1F [Example 106, (R)-(3-{4-[6-Amino-5-(2,4-difluorobenzoyl)-2-oxo-2H-pyridin-1-yl]-3,5-difluorophenoxy}propylamino)phenyl acetic acid]	–	< 100	–
Nc1c(C(=O)c2ccc(F)cc2F)ccc(=O)n1-c1c(F)cc(OCCCN[C@H](C(=O)O)C2CCCCC2)cc1F [Example 107, (2S)-[(3-{4-[6-amino-5-(2,4-difluorobenzoyl)-2-oxopyridin-1(2H)-yl]-3,5-difluorophenoxy}propyl)amino](cyclohexyl)acetic acid]	–	< 100	–
CC(C)C[C@@H](NCCCOc1cc(F)c(-n2c(N)c(C(=O)c3ccc(F)cc3F)ccc2=O)c(F)c1)C(=O)O [Example 108, N-(3-{4-[6-amino-5-(2,4-difluorobenzoyl)-2-oxopyridin-1(2H)-yl]-3,5-difluorophenoxy}propyl)-D-leucine]	–	< 100	–
CC(C)C[C@H](NCCCCCOc1cc(F)c(-n2c(N)c(C(=O)c3ccc(F)cc3)ccc2=O)c(F)c1)C(=O)O [Example 109, N-(5-{4-[6-amino-5-(4-fluorobenzoyl)-2-oxopyridin-1(2H)-yl]-3,5-difluorophenoxy}pentyl)-L-leucine]	–	< 100	–
CC(C)C[C@H](NC(=O)COc1ccc(-n2c(N)c(C(=O)c3ccc(F)cc3)ccc2=O)cc1)C(=O)O [Example 110, N-({4-[6-Amino-5-(4-fluorobenzoyl)-2-oxopyridin-1(2H)-yl]phenoxy}-acetyl)-L-leucine]	–	100 to 1000	–
CC(C)C[C@H](NCCc1ccc(-n2c(N)c(C(=O)c3ccc(F)cc3)ccc2=O)cc1)C(=O)O [Example 111, N-[2-(4-{6-amino-5-[(4-fluorophenyl)carbonyl]-2-oxopyridin-1 (2H)-yl}phenyl)ethyl]-L-leucine]	–	100 to 1000	–
CC(C)C[C@H](NCCCCCOc1cc(F)c(-n2c(N)c(C(=O)c3ccc(F)cc3F)ccc2=O)c(F)c1)C(=O)O [Example 116, N-(5-{4-[6-amino-5-(2,4-difluorobenzoyl)-2-oxopyridin-1(2H)-yl]-3,5-difluorophenoxy}pentyl)-L-leucine]	–	< 100	–
CC(C)C[C@H](NCCc1ccc(-n2c(N)c(C(=O)c3ccc(F)cc3F)ccc2=O)cc1)C(=O)O [Example 117, N-[2-(4-{6-amino-5-[(2,4-difluorophenyl)carbonyl]-2-oxopyridin-1(2H)-yl}phenyl)ethyl]-L-leucine]	–	< 100	–
Nc1c(C(=O)c2ccc(F)cc2)ccc(=O)n1-c1ccc(CCN[C@H](C(=O)O)c2ccccc2)cc1 [Example 118]	–	< 100	–
